The term EC50 denotes the concentration needed to bring the measured effect to its halfway point. As usually defined, the EC90 is the concentration needed for an effect of 90%.

Like-named read-outs stand apart in the source and are kept apart here. Bounds are passed on as bounds.

In article PMC10788925 (Journal of Medicinal Chemistry, 2023) one finds CC50, EC50 and EC90 data, which are given here for eleven compounds.

For one data set, the system named is HEV-3 replicon p6-Gluc. As to the kind of experiment: microbe, parasite or virus in culture. It is filed as cell-based, Hepatitis E virus. To be noted: Hepatitis E virus.
Data set [1] can be described thus: in vitro. To be noted: human.
In the next data set the test system is SARS-CoV-2. As to the kind of experiment: microbe, parasite or virus in culture. It is filed as cell-based.
Data set [2] can be described thus: in vitro.
The next data set concerns CHIKV LR2006-OPY1. Put plainly: microbe, parasite or virus in culture. To be noted: Chikungunya virus. It is filed as cell-based.
For the next data set, the system named is Vero E6 cells. To be noted: African green monkey (Chlorocebus sp.).
The test system of another data set is Huh-7 cells. To be noted: human.
The nature of data set [3]: in vitro. To be noted: human. The source holds these as a separate data set.
In a further data set the test system is RVFV strain MP-12. As to the kind of experiment: microbe, parasite or virus in culture. Type of data set: cell-based. To be noted: Rift Valley fever virus.
Where [4] appears, read: Severe acute respiratory syndrome coronavirus 2, Vero C1008, 24 h.
[5] abbreviates: Severe acute respiratory syndrome coronavirus 2, Vero C1008, 48 h.
[6] abbreviates: African green monkey (Chlorocebus sp.).

With `COC(=O)[C@H]1[C@@H](O)[C@@]2(O)c3c(F)cc(F)cc3O[C@@]2(c2ccc(OC)cc2)[C@@H]1c1ccccc1` (racemic) [9c, (±)-Methyl (1R,2R,3S,3aR,8bS)-6,8-difluoro-1,8b-dihydroxy-3a-(4-methoxyphenyl)-3-phenyl-2,3,3a,8b-tetrahydro-1H-cyclopenta[b]benzofuran-2-carboxylate], the CC50 was > 1000 nM in the data set with HepG2 cells (read-out: HEP2G, CC50 (24 h), 24 h); > 1000 nM with HepG2 cells (read-out: HEP2G, CC50 (48 h), 48 h); > 1000 nM in the data set “in vitro [1]”. Besides, the concentration for a half-maximal effect (EC50) in the data set on HEV-3 replicon p6-Gluc (HepG2, 24 h) is > 1000 nM; with HEV-3 replicon p6-Gluc (HepG2, 24 h, read-out: HEV, EC50 (24 h, nM)) it was > 1000 nM; with HEV-3 replicon p6-Gluc (HepG2, 48 h) it was > 1000 nM; in the data set with HEV-3 replicon p6-Gluc (HepG2, 48 h, read-out: HEV, EC50 (48 h, nM)), > 1000 nM. In addition, the EC90 with HEV-3 replicon p6-Gluc (HepG2, 24 h) is > 1000 nM; in the data set on HEV-3 replicon p6-Gluc (HepG2, 24 h, read-out: HEV, EC90 (24 h, nM)), > 1000 nM; with HEV-3 replicon p6-Gluc (HepG2, 48 h), > 1000 nM; with HEV-3 replicon p6-Gluc (HepG2, 48 h, read-out: HEV, EC90 (48 h, nM)2) it was > 1000 nM.
As to `COC(=O)[C@H]1[C@@H](O)[C@@]2(O)c3c(Cl)cc(Cl)cc3O[C@@]2(c2ccc(OC)cc2)[C@@H]1c1ccccc1` (racemic) [9da, (±)-Methyl (1R,2R,3S,3aR,8bS)-6,8-dichloro-1,8b-dihydroxy-3a-(4-methoxyphenyl)-3-phenyl-2,3,3a,8b-tetrahydro-1H-cyclopenta[b]benzofuran-2-carboxylate], the concentration giving a half-maximal response (EC50) in the data set with SARS-CoV-2 (setting [4]) came to 111 nM; in the data set with SARS-CoV-2 (setting [5]), 176 nM; in the data set with HEV-3 replicon p6-Gluc (HepG2, 24 h), 25.4 nM; in the data set with HEV-3 replicon p6-Gluc (HepG2, 48 h), 17.5 nM; in the data set with CHIKV LR2006-OPY1 (Huh-7, 24 h), 18.1 nM; in the data set on CHIKV LR2006-OPY1 (Huh-7, 48 h) it was 22.4 nM. Further, the EC50 in the data set with RVFV strain MP-12 (Vero C1008, 24 h) was 102 nM; in the data set with RVFV strain MP-12 (Vero C1008, 48 h), 143 nM. In addition, the EC90 in the data set with SARS-CoV-2 (setting [4]) stood at 387 nM; in the data set with SARS-CoV-2 (setting [5]), 558 nM; with HEV-3 replicon p6-Gluc (HepG2, 24 h), 642 nM; in the data set with HEV-3 replicon p6-Gluc (HepG2, 48 h) it was 725 nM; in the data set with CHIKV LR2006-OPY1 (Huh-7, 24 h), 83.4 nM; in the data set on CHIKV LR2006-OPY1 (Huh-7, 48 h), 92.3 nM. The EC90 with RVFV strain MP-12 (Vero C1008, 24 h) was 227 nM; with RVFV strain MP-12 (Vero C1008, 48 h), 217 nM. The CC50 is > 1000 nM in “in vitro [2]” (setting [6]); > 1000 nM in “in vitro [2]” (chlorocebus sabaeus, CC50); > 1000 nM in the data set on Vero E6 cells; > 1000 nM with Huh-7 cells; > 1000 nM in “in vitro [3]”. In addition, the CC50 at 24 h in the data set “in vitro [1]” was found to be 798 nM. Also, the CC50 at 48 h in the data set “in vitro [1]” was 149 nM.
In the data set with HEV-3 replicon p6-Gluc (HepG2, 24 h), `COc1cc(OC)c2c(c1)O[C@@]1(c3ccc(Cl)cc3)[C@H](c3ccccc3)[C@@H](C(=O)N(C)C)[C@@H](O)[C@@]21O` (racemic) [14aa, (±)-(1R,2R,3S,3aR,8bS)-3a-(4-chlorophenyl)-1,8b-dihydroxy-6,8-dimethoxy-N,N-dimethyl-3-phenyl-2,3,3a,8b-tetrahydro-1H-cyclopenta[b]benzofuran-2-carboxamide] had an EC50 of 7.2 nM and an EC90 of 174 nM. In the data set with HEV-3 replicon p6-Gluc (HepG2, 48 h), this compound displayed an EC50 of 8.9 nM and an EC90 of 102 nM. In “in vitro [1]”, this compound returned a CC50 at 24 h of 390 nM and a CC50 at 48 h of 22.7 nM.
As for `COc1cc(OC)c2c(c1)O[C@@]1(c3ccc(F)cc3)[C@H](c3ccccc3)[C@@H](C(=O)N(C)C)[C@@H](O)[C@@]21O` (racemic) [14baa, (±)-(1R,2R,3S,3aR,8bS)-3a-(4-fluorophenyl)-1,8b-dihydroxy-6,8-dimethoxy-N,N-dimethyl-3-phenyl-2,3,3a,8b-tetrahydro-1H-cyclopenta[b]benzofuran-2-carboxamide], in the data set on HEV-3 replicon p6-Gluc (HepG2, 24 h), a half-maximal response (EC50) required 229 nM and the EC90 was > 1000 nM. Besides, in the data set on HEV-3 replicon p6-Gluc (HepG2, 48 h), it took 208 nM to reach a half-maximal effect (EC50) and the EC90 stood at 829 nM. In the data set “in vitro [1]”, this compound registered a CC50 at 24 h of 966 nM and a CC50 at 48 h of 297 nM.
`CONC(=O)[C@H]1[C@@H](O)[C@@]2(O)c3c(Cl)cc(Cl)cc3O[C@@]2(c2ccc(OC)cc2)[C@@H]1c1ccccc1` (racemic) [14da, (±)-(1R,2R,3S,3aR,8bS)-6,8-Dichloro-1,8b-dihydroxy-N-methoxy-3a-(4-methoxyphenyl)-3-phenyl-2,3,3a,8b-tetrahydro-1H-cyclopenta[b]benzofuran-2-carboxamide]: in the data set on HEV-3 replicon p6-Gluc (HepG2, 24 h), the midpoint of the response, the EC50, lay at 8.6 nM and the 90% effect level (EC90) was put at 172 nM. In the data set with HEV-3 replicon p6-Gluc (HepG2, 48 h), this compound came in with an EC50 of 9.8 nM and an EC90 of 134 nM. Also, in “in vitro [1]”, the CC50 at 24 h was determined as 511 nM and the CC50 at 48 h came out at 31.8 nM.
As for `CONC(=O)[C@H]1[C@@H](O)[C@@]2(O)c3c(Cl)cc(Br)cc3O[C@@]2(c2ccc(OC)cc2)[C@@H]1c1ccccc1` (racemic) [14f, (±)-(1R,2R,3S,3aR,8bS)-6-Bromo-8-chloro-1,8b-dihydroxy-N-methoxy-3a-(4-methoxyphenyl)-3-phenyl-2,3,3a,8b-tetrahydro-1H-cyclopenta[b]benzofuran-2-carboxamide], the half-maximal effective concentration (EC50) is 51.4 nM in the data set with SARS-CoV-2 (setting [4]); 190 nM in the data set with SARS-CoV-2 (setting [5]); 4.6 nM in the data set with HEV-3 replicon p6-Gluc (HepG2, 24 h); 2.6 nM in the data set on HEV-3 replicon p6-Gluc (HepG2, 48 h); 3.1 nM in the data set on CHIKV LR2006-OPY1 (Huh-7, 24 h); 3.4 nM in the data set on CHIKV LR2006-OPY1 (Huh-7, 48 h). For the same compound, the EC50 with RVFV strain MP-12 (Vero C1008, 24 h) is 42.1 nM; in the data set with RVFV strain MP-12 (Vero C1008, 48 h), 106 nM. In addition, the concentration for an effect of 90% (EC90) is 920 nM with SARS-CoV-2 (setting [4]); 340 nM with SARS-CoV-2 (setting [5]); 53.4 nM in the data set on HEV-3 replicon p6-Gluc (HepG2, 24 h); 30.2 nM in the data set with HEV-3 replicon p6-Gluc (HepG2, 48 h); 19 nM with CHIKV LR2006-OPY1 (Huh-7, 24 h); 20.2 nM with CHIKV LR2006-OPY1 (Huh-7, 48 h). In addition, the EC90 in the data set with RVFV strain MP-12 (Vero C1008, 24 h) was 92.5 nM; in the data set on RVFV strain MP-12 (Vero C1008, 48 h), 113 nM. Besides, the CC50 in “in vitro [2]” (setting [6]) is > 1000 nM; in “in vitro [2]” (chlorocebus sabaeus, CC50) it was > 1000 nM; in the data set on Huh-7 cells it was > 1000 nM; in “in vitro [3]” it was > 1000 nM. The CC50 at 24 h in the data set “in vitro [1]” was 407 nM. Further, the CC50 at 48 h in “in vitro [1]” was found to be 15.6 nM.
As for `CONC(=O)[C@H]1[C@@H](O)[C@@]2(O)c3c(F)cc(OC)cc3O[C@@]2(c2ccc(OC)cc2)[C@@H]1c1ccccc1` (racemic) [14hb, (±)-(1R,2R,3S,3aR,8bS)-8-Fluoro-1,8b-dihydroxy-N,6-dimethoxy-3a-(4-methoxyphenyl)-3-phenyl-2,3,3a,8b-tetrahydro-1H-cyclopenta[b]benzofuran-2-carboxamide], in the data set on HEV-3 replicon p6-Gluc (HepG2, 24 h), the midpoint of the response, the EC50, lay at 17.2 nM and the 90% effect level (EC90) was put at 91.2 nM. In the data set on HEV-3 replicon p6-Gluc (HepG2, 48 h), this compound had an EC50 of 10.9 nM and an EC90 of 69.8 nM. For the same compound, in “in vitro [1]”, the CC50 at 24 h was 491 nM and the CC50 at 48 h is 27.5 nM.
On to `CONC(=O)[C@H]1[C@@H](O)[C@@]2(O)c3c(OC)cc(Br)cc3O[C@@]2(c2ccc(OC)cc2)[C@@H]1c1ccccc1` (racemic) [14m, (±)-(1R,2R,3S,3aR,8bS)-6-Bromo-1,8b-dihydroxy-N,8-dimethoxy-3a-(4-methoxyphenyl)-3-phenyl-2,3,3a,8b-tetrahydro-1H-cyclopenta[b]benzofuran-2-carboxamide], for which, in the data set on HEV-3 replicon p6-Gluc (HepG2, 24 h), a half-maximal response (EC50) required 1 nM and the EC90 was determined as 328 nM. In addition, in the data set with HEV-3 replicon p6-Gluc (HepG2, 48 h), the concentration giving a half-maximal response (EC50) was found to be 0.2 nM and the EC90 came out at 1.6 nM. In the data set “in vitro [1]”, this compound gave a CC50 at 24 h of 748 nM and a CC50 at 48 h of 1 nM.
In the data set with HEV-3 replicon p6-Gluc (HepG2, 24 h), `COC(=O)[C@H]1[C@@H](O)[C@@]2(O)c3c(OC)cc(OC)cc3O[C@@]2(c2ccc(OC)cc2)[C@@H]1c1ccccc1` (racemic) [(±)-methyl rocaglate (11bc), (±)-Methyl (1R,2R,3S,3aR,8bS)-1,8b-dihydroxy-6,8-dimethoxy-3a-(4-methoxyphenyl)-3-phenyl-2,3,3a,8b-tetrahydro-1H-cyclopenta[b]benzofuran-2-carboxylate, reference compound] registered an EC50 of 28.4 nM and an EC90 of 631 nM. In the data set on HEV-3 replicon p6-Gluc (HepG2, 48 h), this compound gave an EC50 of 29.9 nM and an EC90 of 188 nM. In “in vitro [1]”, this compound showed a CC50 at 24 h of 690 nM and a CC50 at 48 h of 65.3 nM.
In the data set with HEV-3 replicon p6-Gluc (HepG2, 24 h), `COc1ccc([C@@]23Oc4cc(OC)cc(OC)c4[C@]2(O)[C@H](O)[C@H](C(=O)N(C)C)[C@H]3c2ccccc2)cc1` (racemic) [(±)-rocaglamide (rac-1b), (±)-(1R,2R,3S,3aR,8bS)-1,8b-Dihydroxy-6,8-dimethoxy-3a-(4-methoxyphenyl)-N,N-dimethyl-3-phenyl-2,3,3a,8b-tetrahydro-1H-cyclopenta[b]benzofuran-2-carboxamide, reference compound] showed an EC50 of 27.8 nM and an EC90 of 213 nM. In the data set on HEV-3 replicon p6-Gluc (HepG2, 48 h), this compound gave an EC50 of 21 nM and an EC90 of 201 nM. In “in vitro [1]”, this compound showed a CC50 at 24 h of 550 nM and a CC50 at 48 h of 44.5 nM.
For `COC(=O)[C@H]1[C@@H](O)[C@@]2(O)c3c(OC)cc(O[C@@H]4O[C@@H]([C@H](O)CO)CO[C@H]4OC)cc3O[C@@]2(c2ccc(OC)cc2)[C@@H]1c1ccccc1` [(−)-silvestrol (2a), silvestrol, reference compound], in the data set with HEV-3 replicon p6-Gluc (HepG2, 24 h), the EC50 amounted to 4.2 nM and the EC90 was 40.5 nM. In the data set with HEV-3 replicon p6-Gluc (HepG2, 48 h), this compound had an EC50 of 2.2 nM and an EC90 of 28.1 nM. In “in vitro [1]”, this compound showed a CC50 at 24 h of 180 nM and a CC50 at 48 h of 13.4 nM.
